Values of other authors, collected in PMC5989765, “The safety, tolerability, and pharmacokinetic profile of GSK2838232, a novel 2nd generation HIV maturation inhibitor, as assessed in healthy subjects” (Pharmacology Research & Perspectives, 2018).

Key:
HIV [1] = tested on: HIV; design: method as in PMID 20154583; conditions: cited from earlier work
HIV [2] = conditions: cited from earlier work

Row | Compound | potency in the presence of human serum (HIV [1]) | efficacy against naturally occurring polymorphisms in the HIV gag region (CA & Sp1) (HIV [2]) | anti‐HIV potency compared to BVM (HIV [2]; Phase IIa clinical studies) | safety (HIV [2]; Phase IIa clinical studies)
1 | C=C(C)[C@@H]1CC[C@]2(C(=O)O)CC[C@]3(C)[C@H](CC[C@@H]4[C@@]5(C)CC[C@H](OC(=O)CC(C)(C)C(=O)O)C(C)(C)[C@@H]5CC[C@]43C)[C@@H]12 [BVM, Bevirimat] | significant decrease in potency | lack of efficacy | – | –
2 | C=C(C)[C@@H]1CC[C@]2(NCCN3CCS(=O)(=O)CC3)CC[C@]3(C)[C@H](CC[C@@H]4[C@@]5(C)CC=C(c6ccc(C(=O)O)cc6)C(C)(C)[C@@H]5CC[C@]43C)[C@@H]12 [BMS‐955176] | – | – | greater and dose‐related anti‐HIV potency | no obvious safety concerns
